Experimental data as given in patent US4772625A, “1,3-dioxan-5-yl-hexenoic acids” (Imperial Chemical Industries PLC, priority 1985, dated 1988).

Columns and labels:
[1] = test system: U46619 induced bronchoconstriction; test: Test (c): U46619 induced bronchoconstriction, Konzett-Rossler anaesthetised guinea-pig model; format: in vivo; details: 2 hours after oral dosing at 0.05 mg/kg
Text: (c) a bronchoconstriction test involving measuring the inhibition by a test compound of the bronchoconstriction induced in the Konzett-Rossler, anaesthetised guinea-pig model (as modified by Collier and James, Brit. J. Pharmacol., 1967, 30, 283-307) by intravenous administration of the TXA2 mimetic agent, U46619 and involving:
(i) obtaining a cumulative dose-response curve to U46619 induced bronchoconstriction by intravenous administration of constant volumes of increasing concentrations of U46619 (0.2-4 μg/kg) in physiological saline solution and expressing bronchoconstriction as the maximum of that theoretically obtainable with no air flow to the test animal;
(ii) generating a cumulative dose-response curve to U46619 induced bronchoconstriction at 30 minute intervals for 3 hours after oral dosing of test compound; and
(iii) calculating a dose-ratio for the test compound (that is the ratio of concentration of U46619 required to cause 50% bronchoconstriction in the presence and absence of test compound) indicating the potency of TXA2 antagonism.
(§1) Using the above test procedures (a)-(c), the following representative results have been obtained with the compounds of formula I (X=Y=H) wherein (i) R is isopropyl, (ii) R is t-butyl; or (iii) R is sec-butyl, respectively: […]

TXA2 [2] = target: T1, TXA2 (Oryctolagus cuniculus, UniProt Q6WQI8); test: Test (a): rabbit aortic strip model, TXA2 or U46619 as agonist; format: cell-based; details: rabbit aortic strip, ±0.05
T1 construct: functional contraction assay (pA2)
T1 sequence (Q6WQI8 1-233): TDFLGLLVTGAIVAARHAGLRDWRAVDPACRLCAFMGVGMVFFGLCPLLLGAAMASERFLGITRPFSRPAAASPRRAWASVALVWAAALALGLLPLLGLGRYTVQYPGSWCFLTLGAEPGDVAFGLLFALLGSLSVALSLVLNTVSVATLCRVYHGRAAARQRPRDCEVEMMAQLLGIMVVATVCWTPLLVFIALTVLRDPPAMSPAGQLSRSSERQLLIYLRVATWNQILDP
Procedure: (§2) (a) The rabbit aortic strip model devised by Piper and Vane (Nature, 1969, 223, 29-35) using as agonist a freshly prepared sample of TXA2, generated by addition of arachidonic acid (25 μg) to citrated, platelet rich rabbit plasma (250 μl ) and allowing the mixture to aggregate fully over 90 seconds before use; alternatively the TXA2 mimetic agent known as U46619 (described by R. L. Jones et alia in "Chemistry, Biochemistry and Pharmacological Activity of Prostanoids" edited by S. M. Roberts and F. Scheinmann, at page 211; Pergamon Press, 1979) may be used as the agonist;
as §1

[3] = test system: U46619 induced hypertension; test: Test (d): U46619 induced hypertension in anaesthetised rats; format: in vivo, rat (Alderley Park strain)
Procedure: (d) Male rats (Alderley Park strain) are anaesthetised with sodium pentobarbital and blood pressure is monitored at the carotid artery. The TXA2 mimetic agent U46619 is administered intravenously via the jugular vein at 5 μg/kg to induce a 20-30 mmHg (2640-3940 pascal) increase in systolic blood pressure. The process is repeated twice to ensure adequacy of response. A test compound is then administered either intravenously (via the jugular vein) or orally (via a cannula) directly into the stomach and the animal is challenged with U46619, five minutes after dosing with test compound and then successively every ten minutes until the hypertensive effect of U46619 is no longer blocked.
Similarly, using test procedure (d) referred to above, the following representative results were obtained on inhibition of U46619 induced hypertension with the compounds of formula I referred to above: […]

[4] = target: T2, U46619 stimulated platelet aggregation (Homo sapiens, UniProt P21731); test: Test (b): blood platelet aggregation test, human citrated platelet-rich plasma, U46619 stimulated; format: cell-based
T2 construct: aggregating human, citrated, platelet-rich plasma; from tissue; host or cells: human citrated platelet-rich plasma (platelets)
T2 sequence (P21731 1-343): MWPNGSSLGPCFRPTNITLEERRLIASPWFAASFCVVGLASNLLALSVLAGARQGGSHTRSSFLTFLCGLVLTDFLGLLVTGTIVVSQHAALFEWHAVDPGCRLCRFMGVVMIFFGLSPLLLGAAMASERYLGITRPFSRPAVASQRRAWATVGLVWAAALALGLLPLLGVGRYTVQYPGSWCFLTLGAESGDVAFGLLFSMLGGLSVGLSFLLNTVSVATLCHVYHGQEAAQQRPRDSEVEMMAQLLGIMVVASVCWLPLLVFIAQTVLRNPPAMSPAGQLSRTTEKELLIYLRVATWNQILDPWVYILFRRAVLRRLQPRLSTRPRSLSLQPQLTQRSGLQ
Text: (b) a blood platelet aggregation test based on that described by Born (Nature, 1962, 194, 927-929) and involving:
(i) aggregating human, citrated, platelet-rich plasma by addition of the TXA2 mimetic agent U46619 so that a dose-response curve is generated;
(ii) generating a dose-response curve for U46619 stimulated platelet aggregation in the presence of increasing amounts of test compound (generally in the range 10^-5 M to 10^-10 M); and
(iii) calculating a KB value indicating potency of TXA2 antagonism for the test compound, averaged over several concentrations, from the calculated 50% response value for U46619 aggregation in the presence and absence of test compound; and
as §1

[5] = target: T3, (Oryctolagus cuniculus, UniProt Q6WQI8); test: Test (a): rabbit aortic strip model, TXA2 or U46619 as agonist; format: cell-based; details: comparison compound
T3 construct: functional contraction assay (pA2)
T3 sequence (Q6WQI8 1-233): T1 sequence (Q6WQI8 1-233)
Procedure: as §2, §1

TXA2 [6] = test: TXA2 antagonist properties (test not specified; one or other of the standard tests); details: qualitative statement
Text: As stated earlier, the acids of formula I are antagonists of one or more of the actions of TXA2, for example certain of its actions on blood platelets, the vasculature and/or the lung.

[7] = 1 hour after oral dose of 0.5 mg/kg

| pA2 (±0.05) (TXA2 [2]) | Kb [4] [nM] | pA2 [5] | SMILES | dose ratio (U46619 bronchoconstriction) [1] | inhibition of U46619 induced hypertension [3, 7] [%] | TXA2 antagonist properties (TXA2 [6]) | inhibition of U46619 induced hypertension ([3]; 1 hour after oral dose of 0.1 mg/kg) [%] |
| --- | --- | --- | --- | --- | --- | --- | --- |
| 7.80 | 13.4 | – | CCC(C)C1OCC(CC=CCCC(=O)O)C(c2ccccc2O)O1 (stereo not drawn) [compound (iii), 4(Z)-6-([2,4,5-cis-]-2-sec-butyl-4-o-hydroxyphenyl-1,3-dioxan-5-yl)hexenoic acid] | > 75 | > 70 | – | – |
| – | – | 5.9 | CC(C)[C@H]1OC[C@@H](C/C=C\CCCC(=O)O)[C@@H](c2ccccc2)O1 (relative stereo) [5(Z)-7-([2,4,5-cis]-2-isopropyl-4-phenyl-1,3-dioxan-5-yl)heptenoic acid, reference compound] | – | – | signficantly lower TXA2 antagonist properties | – |
| 7.71 | 17.9 | – | CC(C)[C@H]1OC[C@@H](C/C=C\CCC(=O)O)[C@@H](c2ccccc2O)O1 (relative stereo) [compound (i), 4(Z)-6-([2,4,5-cis]-4-o-hydroxyphenyl-2-isopropyl-1,3-dioxan-5-yl)hexenoicacid] | > 75 | > 70 | – | – |
| 7.86 | 13.1 | – | CC(C)(C)[C@H]1OC[C@@H](C/C=C\CCC(=O)O)[C@@H](c2ccccc2O)O1 (relative stereo) [compound (ii), 4(Z)-6-([2,4,5-cis]-2-t-butyl-4-o-hydroxyphenyl-1,3-dioxan-5-yl)hexenoic acid] | > 110 | – | – | > 75 |
